The target of one test is SARS-CoV-2 Mpro (Severe acute respiratory syndrome coronavirus 2, UniProt P0DTD1). Put plainly: SARS-CoV-2 Mpro enzymatic inhibition assay (fluorescence). The format is biochemical. In outline: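 A fluorescence readout (340 nm excitation, 490 nm emission) was taken after the substrate reaction ran 60 min at 30° C. Before substrate addition, E. coli-expressed protease and compound (3-fold dilutions, 10 doses, duplicates) sat together 30 min at room temperature. Percent inhibition was fitted by variable-slope nonlinear regression to give IC50.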

The target of the next test is HCoV-229E Mpro (Human coronavirus 229E, UniProt P0C6X1). Put plainly: HCoV-229E Mpro enzymatic inhibition assay (fluorescence). Format: biochemical.
The next test deals with HCoV-HKU1 Mpro (Human coronavirus HKU1, UniProt P0C6X2). Put plainly: HCoV-HKU1 Mpro enzymatic inhibition assay (fluorescence). Format: biochemical. In outline:
(§1)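 E. coli-expressed Mpro + cpd, 30 min RT preinc; add fluorogenic substrate, 60 min 30 °C; read Ex/Em 340/490 nm. % inhibition vs DMSO and GC376 controls, corrected with no-enzyme compound blanks; IC50 by 4-parameter logistic fit.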

The next test deals with MERS Mpro (Middle East respiratory syndrome-related coronavirus, UniProt K9N7C7). As to the kind of experiment: biochemical. The arrangement: species or system MERS-CoV.
In a further test the target is HCoV-NL63 Mpro (Human coronavirus NL63, UniProt P0C6X5). As to the kind of experiment: HCoV-NL63 Mpro enzymatic inhibition assay (fluorescence). The format is biochemical. In outline:
as §1

The next test addresses HCoV-OC43 Mpro (Human coronavirus OC43, UniProt P0C6X6). Put plainly: HCoV-OC43 Mpro enzymatic inhibition assay (fluorescence). Format: biochemical. The method, boiled down:
as §1

Another test addresses SARS-CoV-1 Mpro (Severe acute respiratory syndrome coronavirus, UniProt P0C6X7). As to the kind of experiment: biochemical.
The mark [1] stands for this setting: mean, 25 nM protein, 25 μM substrate, 30 min pre-incubation, 60 min at 30° C., read-out: Mpro_SARS-CoV-2 mean IC50.

Like-named read-outs stand apart in the source and are kept apart here.

As usually defined, the IC50 is the concentration at which inhibition is half-maximal.

Sequence of HCoV-HKU1 Mpro (P0C6X2 3335-3637 limits assumed): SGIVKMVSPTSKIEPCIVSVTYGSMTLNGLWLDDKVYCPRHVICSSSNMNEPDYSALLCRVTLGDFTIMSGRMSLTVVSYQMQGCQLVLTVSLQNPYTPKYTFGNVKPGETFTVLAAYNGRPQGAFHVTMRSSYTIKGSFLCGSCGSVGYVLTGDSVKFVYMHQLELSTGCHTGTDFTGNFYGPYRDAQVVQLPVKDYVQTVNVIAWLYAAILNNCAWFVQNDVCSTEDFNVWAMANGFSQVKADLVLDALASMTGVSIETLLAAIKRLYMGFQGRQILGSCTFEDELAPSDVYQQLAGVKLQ
Sequence of MERS Mpro (K9N7C7 3248-3553 limits assumed): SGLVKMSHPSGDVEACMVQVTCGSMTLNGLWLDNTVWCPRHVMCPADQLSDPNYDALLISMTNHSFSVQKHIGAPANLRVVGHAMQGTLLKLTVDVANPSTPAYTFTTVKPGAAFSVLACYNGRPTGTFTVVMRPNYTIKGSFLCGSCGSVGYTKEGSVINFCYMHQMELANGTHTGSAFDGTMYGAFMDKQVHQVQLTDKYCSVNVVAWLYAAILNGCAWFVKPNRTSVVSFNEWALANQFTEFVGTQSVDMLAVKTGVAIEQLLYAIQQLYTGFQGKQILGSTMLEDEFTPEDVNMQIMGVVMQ
Sequence of HCoV-229E Mpro (P0C6X1 2966-3267 limits assumed): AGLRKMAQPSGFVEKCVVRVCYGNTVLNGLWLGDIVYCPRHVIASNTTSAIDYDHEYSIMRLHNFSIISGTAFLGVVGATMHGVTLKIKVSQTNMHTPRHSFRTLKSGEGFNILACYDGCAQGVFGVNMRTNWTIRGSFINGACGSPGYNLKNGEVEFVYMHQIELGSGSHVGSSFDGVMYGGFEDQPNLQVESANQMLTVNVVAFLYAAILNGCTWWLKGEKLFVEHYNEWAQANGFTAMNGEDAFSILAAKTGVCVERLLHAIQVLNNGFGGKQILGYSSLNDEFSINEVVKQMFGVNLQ
Sequence of HCoV-NL63 Mpro (P0C6X5 2940-3242 limits assumed): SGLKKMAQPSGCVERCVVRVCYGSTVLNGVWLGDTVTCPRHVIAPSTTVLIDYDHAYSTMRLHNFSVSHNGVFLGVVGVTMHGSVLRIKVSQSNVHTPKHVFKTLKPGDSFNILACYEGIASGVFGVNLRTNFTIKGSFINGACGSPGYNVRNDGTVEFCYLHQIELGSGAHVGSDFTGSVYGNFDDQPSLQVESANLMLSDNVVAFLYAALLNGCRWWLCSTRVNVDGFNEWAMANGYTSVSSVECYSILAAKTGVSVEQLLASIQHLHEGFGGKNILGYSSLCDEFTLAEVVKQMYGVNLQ
Sequence of HCoV-OC43 Mpro (P0C6X6 3247-3549 limits assumed): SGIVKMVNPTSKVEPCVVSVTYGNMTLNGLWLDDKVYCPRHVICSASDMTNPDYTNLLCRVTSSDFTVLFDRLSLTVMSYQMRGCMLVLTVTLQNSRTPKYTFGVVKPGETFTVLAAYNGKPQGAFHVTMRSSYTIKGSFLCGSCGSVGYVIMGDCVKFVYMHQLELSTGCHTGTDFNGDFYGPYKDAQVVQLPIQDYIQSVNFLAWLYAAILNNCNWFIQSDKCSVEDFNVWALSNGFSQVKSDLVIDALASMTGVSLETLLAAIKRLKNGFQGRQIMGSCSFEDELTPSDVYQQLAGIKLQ

Consider `CC1(C)[C@@H]2[C@@H](C(=O)N[C@H](C=O)C[C@@H]3CCNC3=O)N(C(=O)CC3CCCCC3(F)F)C[C@@H]21` (stereo partly drawn) [Compound 64, (1R,2S,5S)-3-(2-(2,2-Difluorocyclohexyl)acetyl)-6,6-dimethyl-N—((S)-1-oxo-3-((S)-2-oxopyrrolidin-3-yl)propan-2-yl)-3-azabicyclo[3.1.0]hexane-2-carboxamide], for which the IC50 at SARS-CoV-2 Mpro is 0.027 µM; against HCoV-229E Mpro, 0.0532 µM; at HCoV-HKU1 Mpro it was 0.0465 µM; against MERS Mpro it was 0.224 µM; on HCoV-NL63 Mpro, 0.105 µM; at HCoV-OC43 Mpro it was 0.0658 µM. Besides, the IC50 against SARS-CoV-1 Mpro was determined as 0.0466 µM.

As for `COc1cccc2[nH]c(C(=O)N3C[C@H]4[C@@H]([C@H]3C(=O)N[C@H](C=O)C[C@@H]3CCNC3=O)C4(C)C)cc12` [Compound 65, (1R,2S,5S)-3-(4-Methoxy-1H-indole-2-carbonyl)-6,6-dimethyl-N—((S)-1-oxo-3-((S)-2-oxopyrrolidin-3-yl)propan-2-yl)-3-azabicyclo[3.1.0]hexane-2-carboxamide], the IC50 came out at 0.027 µM at SARS-CoV-2 Mpro (setting [1]); 0.038 µM at HCoV-229E Mpro; 0.0211 µM at HCoV-HKU1 Mpro; 0.32 µM on MERS Mpro; 0.0241 µM against HCoV-NL63 Mpro; 0.0252 µM against HCoV-OC43 Mpro. Further, half-maximal inhibition on SARS-CoV-1 Mpro (IC50) required 0.0331 µM.

As to `C[C@@H](C(=O)N1C[C@H]2[C@@H]([C@H]1C(=O)N[C@H](C=O)C[C@@H]1CCNC1=O)C2(C)C)C1CCCCC1` [Compound 67, (1R,2S,5S)-3-((R)-2-Cyclohexylpropanoyl)-6,6-dimethyl-N—((S)-1-oxo-3-((S)-2-oxopyrrolidin-3-yl)propan-2-yl)-3-azabicyclo[3.1.0]hexane-2-carboxamide], the IC50 came out at 0.0278 µM against SARS-CoV-2 Mpro; 0.0273 µM at HCoV-229E Mpro; 0.0108 µM against HCoV-HKU1 Mpro; 0.17 µM against MERS Mpro; 0.0518 µM against HCoV-NL63 Mpro; 0.0332 µM against HCoV-OC43 Mpro. The compound also registered an IC50 against SARS-CoV-1 Mpro of 0.0441 µM.

With `Cc1cc(Cl)cc2cc(C(=O)N3C[C@H]4[C@@H]([C@H]3C(=O)N[C@H](C=O)C[C@@H]3CCNC3=O)C4(C)C)[nH]c12` [Compound 69, (1R,2S,5S)-3-(5-Chloro-7-methyl-1H-indole-2-carbonyl)-6,6-dimethyl-N—((S)-1-oxo-3-((S)-2-oxopyrrolidin-3-yl)propan-2-yl)-3-azabicyclo[3.1.0]hexane-2-carboxamide], the IC50 against SARS-CoV-2 Mpro was found to be 0.0292 µM; on HCoV-229E Mpro, 0.0505 µM; at HCoV-HKU1 Mpro, 0.0326 µM; against MERS Mpro, 0.476 µM; against HCoV-NL63 Mpro, 0.0807 µM; against HCoV-OC43 Mpro it was 0.0798 µM. At SARS-CoV-1 Mpro, this compound had an IC50 of 0.0488 µM.

For `O=C[C@H](C[C@@H]1CCNC1=O)NC(=O)[C@@H]1C[C@@H](C2CCCCC2)CN1C(=O)c1cc2cccc(F)c2[nH]1` [Compound 71, (2S,4S)-4-cyclohexyl-1-(7-fluoro-1H-indole-2-carbonyl)-N—((S)-1-oxo-3-((S)-2-oxopyrrolidin-3-yl)propan-2-yl)pyrrolidine-2-carboxamide], the IC50 on SARS-CoV-2 Mpro came out at 0.0304 µM; at HCoV-229E Mpro, 0.0535 µM; against HCoV-HKU1 Mpro, 0.0349 µM; at MERS Mpro it was 1.42 µM; on HCoV-NL63 Mpro it was 0.414 µM; at HCoV-OC43 Mpro, 0.133 µM. Further, on SARS-CoV-1 Mpro, the half-inhibitory concentration (IC50) was 0.0956 µM.

In the case of `Cc1ccc2cc(C(=O)N3C[C@H]4[C@@H]([C@H]3C(=O)N[C@H](C=O)C[C@@H]3CCNC3=O)C4(C)C)[nH]c2c1` [Compound 72, (1R,2S,5S)-6,6-Dimethyl-3-(6-methyl-1H-indole-2-carbonyl)-N—((S)-1-oxo-3-((S)-2-oxopyrrolidin-3-yl)propan-2-yl)-3-azabicyclo[3.1.0]hexane-2-carboxamide], the concentration for half-maximal inhibition (IC50) was 0.0313 µM against SARS-CoV-2 Mpro; 0.0301 µM against HCoV-229E Mpro; 0.0208 µM on HCoV-HKU1 Mpro; 0.346 µM on MERS Mpro; 0.0217 µM at HCoV-NL63 Mpro; 0.0494 µM at HCoV-OC43 Mpro. For the same compound, the IC50 on SARS-CoV-1 Mpro is 0.0589 µM.

Turning to `CC(C)(C)CCC(=O)N1C[C@H]2[C@@H]([C@H]1C(=O)N[C@H](C=O)C[C@@H]1CCNC1=O)C2(C)C` [Compound 73, (1R,2S,5S)-3-(4,4-Dimethylpentanoyl)-6,6-dimethyl-N—((S)-1-oxo-3-((S)-2-oxopyrrolidin-3-yl)propan-2-yl)-3-azabicyclo[3.1.0]hexane-2-carboxamide], the IC50 at SARS-CoV-2 Mpro (setting [1]) came out at 0.0318 µM; on HCoV-229E Mpro, 0.0626 µM; against HCoV-HKU1 Mpro it was 0.0575 µM; against MERS Mpro, 0.326 µM; against HCoV-NL63 Mpro it was 0.182 µM; on HCoV-OC43 Mpro, 0.0714 µM. Half-maximal inhibition against SARS-CoV-1 Mpro (IC50) required 0.0631 µM.

Regarding `CC1(C)[C@@H]2[C@@H](C(=O)N[C@H](C=O)C[C@@H]3CCNC3=O)N(C(=O)c3cc4ccc(C#N)cc4[nH]3)C[C@@H]21` [Compound 74, (1R,2S,5S)-3-(6-Cyano-1H-indole-2-carbonyl)-6,6-dimethyl-N—((S)-1-oxo-3-((S)-2-oxopyrrolidin-3-yl)propan-2-yl)-3-azabicyclo[3.1.0]hexane-2-carboxamide], the IC50 was 0.032 µM against SARS-CoV-2 Mpro; 0.0553 µM against HCoV-229E Mpro; 0.0409 µM against HCoV-HKU1 Mpro; 0.479 µM at MERS Mpro; 0.0868 µM against HCoV-NL63 Mpro; 0.0864 µM at HCoV-OC43 Mpro. On SARS-CoV-1 Mpro, this compound showed an IC50 of 0.0614 µM.

Regarding `N#Cc1cccc2cc(C(=O)N3C[C@H](C4CCCCC4)C[C@H]3C(=O)N[C@H](C=O)C[C@@H]3CCNC3=O)[nH]c12` [Compound 75, (2S,4S)-1-(7-cyano-1H-indole-2-carbonyl)-4-cyclohexyl-N—((S)-1-oxo-3-((S)-2-oxopyrrolidin-3-yl)propan-2-yl)pyrrolidine-2-carboxamide], the IC50 against SARS-CoV-2 Mpro is 0.0323 µM; on HCoV-229E Mpro, 0.064 µM; against HCoV-HKU1 Mpro it was 0.0166 µM; against MERS Mpro, 0.604 µM; against HCoV-NL63 Mpro it was 0.754 µM; against HCoV-OC43 Mpro it was 0.057 µM. Moreover, the IC50 at SARS-CoV-1 Mpro amounted to 0.066 µM.

On to `N#Cc1cccc2[nH]c(C(=O)N3CC4(CC4)C[C@H]3C(=O)N[C@H](C=O)C[C@@H]3CCNC3=O)cc12` [Compound 76, (S)-5-(4-Cyano-1H-indole-2-carbonyl)-N—((S)-1-oxo-3-((S)-2-oxopyrrolidin-3-yl)propan-2-yl)-5-azaspiro[2.4]heptane-6-carboxamide], for which the IC50 against SARS-CoV-2 Mpro was 0.0327 µM; against HCoV-229E Mpro, 0.0269 µM; on HCoV-HKU1 Mpro, 0.0131 µM; against MERS Mpro it was 0.2 µM; on HCoV-NL63 Mpro it was 0.033 µM; against HCoV-OC43 Mpro, 0.0301 µM. This compound had an IC50 against SARS-CoV-1 Mpro of 0.0606 µM.

Take `Cc1ccc(F)c2[nH]c(C(=O)N3C[C@H]4[C@@H]([C@H]3C(=O)N[C@H](C=O)C[C@@H]3CCNC3=O)C4(C)C)cc12` [Compound 77, (1R,2S,5S)-3-(7-Fluoro-4-methyl-1H-indole-2-carbonyl)-6,6-dimethyl-N—((S)-1-oxo-3-((S)-2-oxopyrrolidin-3-yl)propan-2-yl)-3-azabicyclo[3.1.0]hexane-2-carboxamide]: the IC50 on SARS-CoV-2 Mpro was 0.0331 µM; on HCoV-229E Mpro, 0.0419 µM; on HCoV-HKU1 Mpro, 0.0453 µM; on MERS Mpro, 0.401 µM; on HCoV-NL63 Mpro, 0.0992 µM; on HCoV-OC43 Mpro it was 0.0838 µM. The compound also came in with an IC50 on SARS-CoV-1 Mpro of 0.0276 µM.

For the compound `CC1(C)[C@@H]2[C@@H](C(=O)N[C@H](C=O)C[C@@H]3CCNC3=O)N(C(=O)c3cc4occc4[nH]3)C[C@@H]21` [Compound 78, (1R,2S,5S)-3-(4H-Furo[3,2-b]pyrrole-5-carbonyl)-6,6-dimethyl-N—((S)-1-oxo-3-((S)-2-oxopyrrolidin-3-yl)propan-2-yl)-3-azabicyclo[3.1.0]hexane-2-carboxamide], the IC50 at SARS-CoV-2 Mpro worked out at 0.0333 µM; against HCoV-229E Mpro, 0.0374 µM; at HCoV-HKU1 Mpro, 0.0511 µM; against MERS Mpro it was 0.479 µM; against HCoV-NL63 Mpro, 0.0813 µM; against HCoV-OC43 Mpro it was 0.0669 µM. Also, inhibition against SARS-CoV-1 Mpro was half-maximal at 0.0868 µM (IC50).

Consider `CC1(C)[C@@H]2[C@@H](C(=O)N[C@H](C=O)C[C@@H]3CCCNC3=O)N(C(=O)CC3CCCCC3)C[C@@H]21` [Compound 79, (1R,2S,5S)-3-(2-Cyclohexylacetyl)-6,6-dimethyl-N—((S)-1-oxo-3-((S)-2-oxopiperidin-3-yl)propan-2-yl)-3-azabicyclo[3.1.0]hexane-2-carboxamide], for which the IC50 at SARS-CoV-2 Mpro turned out to be 0.0345 µM; on HCoV-229E Mpro, 0.0508 µM; against HCoV-HKU1 Mpro, 0.0271 µM; against MERS Mpro, 0.177 µM; against HCoV-NL63 Mpro it was 0.0578 µM; on HCoV-OC43 Mpro, 0.0386 µM. The compound also came in with an IC50 at SARS-CoV-1 Mpro of 0.0259 µM.

For `CC1(C)[C@@H]2[C@@H](C(=O)N[C@H](C=O)C[C@@H]3CCNC3=O)N(C(=O)c3cc4cc(S(C)(=O)=O)ccc4[nH]3)C[C@@H]21` [Compound 80, (1R,2S,5S)-6,6-Dimethyl-3-(5-(methylsulfonyl)-1H-indole-2-carbonyl)-N—((S)-1-oxo-3-((S)-2-oxopyrrolidin-3-yl)propan-2-yl)-3-azabicyclo[3.1.0]hexane-2-carboxamide], the IC50 against SARS-CoV-2 Mpro was 0.035 µM; at HCoV-229E Mpro, 0.0286 µM; at HCoV-HKU1 Mpro, 0.0225 µM; against MERS Mpro, 0.384 µM; on HCoV-NL63 Mpro, 0.0482 µM; against HCoV-OC43 Mpro, 0.0633 µM. The compound further had an IC50 at SARS-CoV-1 Mpro of 0.0755 µM.
